From US11938103B2, “Potentiation of helminth treatment” (Elanco Tiergesundheit AG, priority 2018, dated 2024)

Tests used:
[1] = tested on: Fasciola hepatica (immature stage); test: Efficacy against immature stage F. hepatica infection in cattle (Example 4); type: in vivo; settings: single oral dose day 49, livers day 91 or 92, diamphenethide 60 mg/kg, clorsulon 5 mg/kg, combination 60 and 5 mg/kg; for % Efficacy using Arithmetic mean / % Efficacy using Geometric Mean: vs untreated control
Description: (§1) Doses were administered orally from suitably sized disposable syringes.
(§2) The fluke counts and body weights were log-transformed (after adding a constant of 1 to the fluke counts only) and the distribution of the transformed data checked to see if they satisfied the assumption of normal distribution.
(§3) Arithmetic means (Amean), geometric means (Gmean), median and ranges were summarized for fluke counts, fluke measurements and bodyweight. A constant of one was applied for calculation of geometric means of fluke counts.
(§4) The percentage efficacy for each treated group was calculated as follows: % Efficacy=100×(FCC−FCT)/FCC where FCC is the arithmetic mean fluke count of the control group and FCT is the arithmetic mean fluke count of the treated group. The formula was also applied using mean geometric fluke counts; these were calculated using log transformed data with 1 added as a constant to each fluke count and then subtracted following transformation.
(§5) Note that expected synergy is defined as: 1−Efficacy(expected without synergy)=(1−EfficacyD)×(1−EfficacyC).
This study was to assess the efficacy of diamphenethide (60 mg/kg) given concurrently with clorsulon (5 mg/kg), diamphenethide alone (60 mg/kg), and clorsulon alone (5 mg/kg) against F. hepatica in cattle with treatment on day 49. This was a controlled, blinded, randomized study.
(§6) On day 0, the calves were experimentally infected with a single isolate of approximately 382 Sunny Corner (Fashep-66) isolate F. hepatica metacercariae. The required number of metacerceriae were made up in 2% carboxymethyl cellulose. Syringes were checked post-infection for retained metacerceriae. The infection was administered orally and each infective dose was followed by water administered orally. The cattle were randomized into treatment groups on the basis of day 48 body weight and allocated to groups as denoted in Table 4.1.
Body weight was determined one day prior to treatment. All treatments were measured by volume and rounded to the nearest 0.1 mL. On day 49, and before feeding, the individual animals were treated once only with the treatment in Table 4.1. […] Untreated control animals were also fed at this time.
(§7) The liver with gall bladder and bile ducts intact were recovered from each animal on day 91 or 92 and processed for F. hepatica counts. The assessment of efficacy was based on the number of live fluke removed from the liver.

[2] = tested on: Fasciola hepatica (early immature stage); test: Efficacy against early immature stage F. hepatica infection in sheep (Example 3); type: in vivo; settings: single oral dose day 14, livers day 91, diamphenethide 20 mg/kg, clorsulon 10 mg/kg, combination 20 and 10 mg/kg; for % Efficacy using Arithmetic mean / % Efficacy using Geometric Mean: vs untreated control
Description: as §1, §2, §3, §4, §5
This study was to assess the efficacy of diamphenethide (20 mg/kg) given concurrently with clorsulon (10 mg/kg), diamphenethide alone (20 mg/kg), and clorsulon alone (10 mg/kg) against F. hepatica in sheep with treatment on day 14. This was a controlled, blinded, randomized study using sheep.
On day 0, the sheep were experimentally infected with a target of 200 “Sunny Corner” (laboratory strain reference Fashep-66) F. hepatica metacercariae. The required number of metacercariae were prepared for infection in a water and 2% carboxymethylcellulose solution. Each infective dose was followed by water administered orally.
The sheep were randomized into treatment groups on the basis of day 13 body weight and allocated to groups as denoted in Table 3.1. Animals were treated on day 14 with a single dose as noted in Table 3.1.
Body weight was determined one day prior to treatments, which were measured by volume and rounded to the nearest 0.1 mL. On day 14, and before feeding, the individual animals were treated once only with the Treatment in Table 3.1. […] Untreated control animals were also fed at this time.
The liver with gall bladder and common bile duct intact were recovered on day 91 from each animal and processed for F. hepatica counts. The assessment of efficacy was based on the number of live fluke removed from the liver.
An ANOVA model was used to compare fluke counts between treatment groups. The model was applied to the log-transformed counts. There was one fixed effect, treatment group.

liver flukes = settings: cited from earlier work
[3] = tested on: Fasciola hepatica (early immature stage); test: Efficacy against early immature stage F. hepatica infection in cattle (Example 5); type: in vivo; settings: single oral dose day 21, livers day 91 or 92, diamphenethide 40 mg/kg, clorsulon 7 mg/kg, combination 40 and 7 mg/kg; for % Efficacy using Arithmetic mean / % Efficacy using Geometric Mean: vs untreated control
Description: as §1, §2, §3, §4, §5
This study was to assess the efficacy of diamphenethide (40 mg/kg) given concurrently with clorsulon (7 mg/kg), diamphenethide alone (40 mg/kg), and clorsulon alone (7 mg/kg) against F. hepatica in cattle with treatment on day 21. This was a controlled, blinded, randomized study.
as §6, with “350” for “382”, “20” for “48”, “5.1.” for “4.1.”
Body weight was determined one day prior to treatment. All treatments were measured by volume and rounded to the nearest 0.1 mL. On day 21, and before feeding, the individual animals were treated once only with the treatment in Table […]. […] Untreated control animals were also fed at this time.
as §7

[4] = tested on: Fasciola hepatica (immature stage); test: Efficacy against immature stage F. hepatica infection in sheep (Example 2); type: in vivo; settings: single oral dose day 42, livers day 91, diamphenethide 40 mg/kg, clorsulon 3.5 mg/kg, combination 40 and 3.5 mg/kg; for % Efficacy using Arithmetic mean / % Efficacy using Geometric Mean: vs untreated control
Description: In the following examples, all animals were confirmed free of infection with F. hepatica and found clinically healthy by a veterinarian prior to enrollment in the study. Doses were administered orally from suitably sized disposable syringes. […] Differences between treatment groups were analyzed by analysis of variance methods (ANOVA), as the assumptions of normal distribution were satisfied for log-transformed fluke count and log-transformed bodyweight, as well as for (untransformed) fluke measurements. Arithmetic […]), geometric […]), median and ranges were summarized for fluke counts, fluke measurements and bodyweight. A constant of one was applied for calculation of geometric means of fluke counts. […] On day 0, the sheep were experimentally infected with a target of 200 “Sunny Corner” (laboratory strain reference […]. hepatica […]. The required number of […] prepared for infection in a water and 4% carboxymethylcellulose solution. Each infective dose was followed by water administered orally. Syringes were subsequently checked post-infection for retained […] was determined that the sheep were administered between 93.5% and 100% (98.3% on average) of the target infective dose. The sheep were randomized into treatment groups on the basis of day 41 body weight and allocated to groups as denoted in Table 2.1. Body weight was determined one day prior to treatments, which were measured by volume and rounded to the nearest 0.1 mL. On day 42, and before feeding, the individual animals were treated once only with the Treatment in Table 2.1. Once the animals had been treated they were returned to their pens and fed within one hour. Untreated control animals were also fed at this time. The liver with gall bladder and common bile duct intact were recovered on day 91 from each animal and processed for F. hepatica counts. The assessment of efficacy was based on the number of live fluke removed from the liver. An ANOVA model was used to compare fluke counts between treatment groups. The model was applied to the log-transformed counts. There was one fixed effect, treatment group.

[5] = deacylation to DAMD; cited from earlier work
Fasciola hepatica = settings: cited from earlier work

SMILES | Fluke Count, Arithmetic mean [1] | Fluke Count, Geometric Mean [1] | % Efficacy using Arithmetic mean [1] | % Efficacy using Geometric Mean [1] | Fluke Count, Arithmetic mean [2] | Fluke Count, Geometric Mean [2] | % Efficacy using Arithmetic mean [2] | % Efficacy using Geometric Mean [2] | Fluke Count, Arithmetic mean [3] | Fluke Count, Geometric Mean [3] | % Efficacy using Arithmetic mean [3] | % Efficacy using Geometric Mean [3] | Fluke Count, Arithmetic mean [4] | Fluke Count, Geometric Mean [4] | % Efficacy using Arithmetic mean [4] | % Efficacy using Geometric Mean [4] | also measured
Nc1cc(C(Cl)=C(Cl)Cl)c(S(N)(=O)=O)cc1S(N)(=O)=O [Clorsulon, 4-amino-6-(1,2,2-trichloroethenyl)benzene-1,3-disulfonamide] | 72.6 | 70.7 | 13.6% | 15.3% | 99.8 | 90.6 | 28.2% | 34.0% | 45.2 | 42.4 | 42.2% | 42.1% | 81.8 | 79.7 | 9.3% | 8.4% | Effectiveness by host species (liver flukes; cattle versus sheep): more effective in cattle than in sheep; Effectiveness against mature flukes (liver flukes; mature flukes): effective against mature flukes
CC(=O)Nc1ccc(OCCOCCOc2ccc(NC(C)=O)cc2)cc1 [Diamphenethide, N-[4-[2-[2-(4-acetamidophenoxy)ethoxy]ethoxy]phenyl]acetamide] | 73.8 | 61.8 | 12.1% | 26.0% | 89.0 | 87.5 | 40.0% | 36.3% | 54.2 | 53.1 | 30.7% | 27.5% | 57.6 | 50.9 | 36.1% | 41.5% | Metabolism [5]: rapidly metabolized by deacylation; Effectiveness against early immature flukes (liver flukes; early immature flukes up to 6 weeks of age): highly effective; Activity against flukes as they develop to maturity (liver flukes; flukes developing to maturity): progressively lower activity
Cc1cc(C(C#N)c2ccc(Cl)cc2)c(Cl)cc1NC(=O)c1cc(I)cc(I)c1O (stereo not drawn) [closantel] | – | – | – | – | – | – | – | – | – | – | – | – | – | – | – | – | Side resistance in rafoxanide-resistant F. hepatica isolates (Fasciola hepatica; F. hepatica isolates, New South Wales): side resistance to closantel was evident
O=C(Nc1ccc(Oc2ccc(Cl)cc2)c(Cl)c1)c1cc(I)cc(I)c1O [rafoxanide] | – | – | – | – | – | – | – | – | – | – | – | – | – | – | – | – | Isolates showing resistance at recommended doses (Fasciola hepatica; ten of seventeen F. hepatica isolates from different geographical regions): 58.8%
